System: MMP-1
Test: Test 2: Analysis of inhibition of MMP-1 expression (MMP-1 ELISA, UVB-irradiated HS68 cells)
Assay type: cell-based, human
Conditions: UVB 30 mJ/cm2, compositions 1% mass concentration (RA 5 μM), 48 h, unirradiated control = 100, UV control = 194
Protocol: Test 2: Analysis of Inhibition of MMP-1 Expression
Human fibrocytes (HS68 cells, purchased from ATCC (Rockville, Md., USA)) were placed in a well plate at a density of 7.5×10^4 cells/well, and incubated in DMEM containing 10% FBS for 24 h, and then washed with PBS (phosphate buffer), followed by the addition of 0.5 ml of PBS therein, the resultant incubated cells were irradiated with ultraviolet rays (UVB30 mJ/cm2) to induce the expression of MMP-1. After the replacement with serum-free DMEM, the resultant product was treated with the compositions (having a mass concentration of 1%) of the examples and the contrast examples. The amount of supernatant obtained after 48 h incubation was determined using an MMP-1 ELISA kit. The human dermal fibroblasts HS68 were treated with ultraviolet rays to increase the expression of MMP-1, and then the resultant HS68 cells were treated with each sample to study whether the expression of MMP-1 was decreased. In the above, retinoic acid (RA, 5 μM, which is known to inhibit the expression of MMP-1) was used as a positive control group.

SMILES: CC1=C(/C=C/C(C)=C/C=C/C(C)=C/C(=O)O)C(C)(C)CCC1 [RA, retinoic acid]
- Effect on inhibition of MMP-1 expression: proportions relative to the control group (%): 118%
